Test results from the NIST ThermoML archive (doi:10.1021/acs.jced.8b00132).
Values joined by “and” are separate entries in the source; they are usually repeats but may differ in a detail not shown here. Equal entries are not always repeated. ± gives the expanded uncertainty stated by the source.

Settings: Gas

O=C(C(F)(F)C(F)(F)F)C(F)(C(F)(F)F)C(F)(F)F [dodecafluoro-2-methylpentan-3-one]
thermal conductivity (473.39 K, 1887 kPa, transient hot wire): 0.02688 ± 0.0016 W/m/K | thermal conductivity (473.39 K, 22521 kPa, transient hot wire): 0.05152 ± 0.0013 W/m/K | thermal conductivity (473.39 K, 49215 kPa, transient hot wire): 0.06271 ± 0.0016 W/m/K | thermal conductivity (473.39 K, 49255 kPa, transient hot wire): 0.06285 ± 0.0016 W/m/K | thermal conductivity (473.4 K, 22522 kPa, transient hot wire): 0.05154 ± 0.0013 W/m/K | thermal conductivity (473.4 K, 33946 kPa, transient hot wire): 0.05711 ± 0.0014 W/m/K | thermal conductivity (473.42 K, 7819 kPa, transient hot wire): 0.04151 ± 0.00099 W/m/K | thermal conductivity (473.44 K, 47 kPa, hot wire): 0.02441 ± 0.0011 W/m/K | thermal conductivity (473.44 K, 201 kPa, hot wire): 0.0244 ± 0.0011 W/m/K | thermal conductivity (473.44 K, 7822 kPa, transient hot wire): 0.0416 ± 0.00099 W/m/K | thermal conductivity (473.44 K, 49246 kPa, transient hot wire): 0.06304 ± 0.0016 W/m/K | thermal conductivity (473.45 K, 47 kPa, hot wire): 0.02432 ± 0.0011 W/m/K | thermal conductivity (473.45 K, 606 kPa, hot wire): 0.02611 ± 0.0012 W/m/K | thermal conductivity (473.45 K, 49207 kPa, transient hot wire): 0.06277 ± 0.0016 W/m/K | thermal conductivity (473.45 K, 49209 kPa, transient hot wire): 0.06279 ± 0.0016 W/m/K | thermal conductivity (473.45 K, 49249 kPa, transient hot wire): 0.06286 ± 0.0016 W/m/K | thermal conductivity (473.46 K, 202 kPa, hot wire): 0.02416 ± 0.0011 W/m/K | thermal conductivity (473.46 K, 606 kPa, hot wire): 0.02602 ± 0.0012 W/m/K | thermal conductivity (473.46 K, 1913 kPa, transient hot wire): 0.0269 ± 0.0016 W/m/K | thermal conductivity (473.46 K, 10825 kPa, transient hot wire): 0.04418 ± 0.001 W/m/K | thermal conductivity (473.46 K, 10827 kPa, transient hot wire): 0.04414 ± 0.001 W/m/K | thermal conductivity (473.47 K, 33946 kPa, transient hot wire): 0.05693 ± 0.0014 W/m/K | thermal conductivity (473.48 K, 419 kPa, hot wire): 0.02531 ± 0.0012 W/m/K | thermal conductivity (473.48 K, 1914 kPa, transient hot wire): 0.027 ± 0.0017 W/m/K | thermal conductivity (473.48 K, 22521 kPa, transient hot wire): 0.05152 ± 0.0013 W/m/K | thermal conductivity (473.48 K, 33946 kPa, transient hot wire): 0.05688 ± 0.0014 W/m/K | thermal conductivity (473.49 K, 418 kPa, hot wire): 0.02526 ± 0.0012 W/m/K | thermal conductivity (473.49 K, 1887 kPa, transient hot wire): 0.027 ± 0.0017 W/m/K | thermal conductivity (473.49 K, 15492 kPa, transient hot wire): 0.04746 ± 0.0011 W/m/K | thermal conductivity (473.49 K, 49134 kPa, transient hot wire): 0.06279 ± 0.0016 W/m/K | thermal conductivity (473.5 K, 1887 kPa, transient hot wire): 0.02709 ± 0.0017 W/m/K | thermal conductivity (473.51 K, 1475 kPa, transient hot wire): 0.02577 ± 0.00085 W/m/K | thermal conductivity (473.51 K, 49242 kPa, transient hot wire): 0.0628 ± 0.0016 W/m/K | thermal conductivity (473.52 K, 1475 kPa, transient hot wire): 0.02566 ± 0.00084 W/m/K | thermal conductivity (473.52 K, 7821 kPa, transient hot wire): 0.04156 ± 0.00099 W/m/K | thermal conductivity (473.52 K, 7822 kPa, transient hot wire): 0.04146 ± 0.00099 W/m/K | thermal conductivity (473.53 K, 10824 kPa, transient hot wire): 0.04374 ± 0.001 W/m/K | thermal conductivity (473.53 K, 49248 kPa, transient hot wire): 0.06293 ± 0.0016 W/m/K | thermal conductivity (473.54 K, 46 kPa, hot wire): 0.0245 ± 0.0011 W/m/K | thermal conductivity (473.54 K, 201 kPa, hot wire): 0.02457 ± 0.0011 W/m/K | thermal conductivity (473.55 K, 201 kPa, hot wire): 0.02434 ± 0.0011 W/m/K | thermal conductivity (473.55 K, 839 kPa, transient hot wire): 0.02508 ± 0.0015 W/m/K | thermal conductivity (473.55 K, 10823 kPa, transient hot wire): 0.0442 ± 0.001 W/m/K | thermal conductivity (473.55 K, 22519 kPa, transient hot wire): 0.05152 ± 0.0013 W/m/K | thermal conductivity (473.55 K, 33944 kPa, transient hot wire): 0.05699 ± 0.0014 W/m/K | thermal conductivity (473.55 K, 33949 kPa, transient hot wire): 0.05683 ± 0.0014 W/m/K | thermal conductivity (473.56 K, 46 kPa, hot wire): 0.02434 ± 0.0011 W/m/K | thermal conductivity (473.56 K, 22522 kPa, transient hot wire): 0.05162 ± 0.0013 W/m/K | thermal conductivity (473.57 K, 840 kPa, transient hot wire): 0.02498 ± 0.0015 W/m/K | thermal conductivity (473.58 K, 1912 kPa, transient hot wire): 0.02703 ± 0.0017 W/m/K and 0.02697 ± 0.0017 W/m/K | thermal conductivity (473.58 K, 15493 kPa, transient hot wire): 0.04744 ± 0.0011 W/m/K | thermal conductivity (473.6 K, 604 kPa, transient hot wire): 0.02513 ± 0.0015 W/m/K | thermal conductivity (473.6 K, 15489 kPa, transient hot wire): 0.04749 ± 0.0011 W/m/K | thermal conductivity (473.61 K, 605 kPa, transient hot wire): 0.02525 ± 0.0015 W/m/K | thermal conductivity (473.62 K, 33950 kPa, transient hot wire): 0.05685 ± 0.0014 W/m/K | thermal conductivity (473.63 K, 10824 kPa, transient hot wire): 0.04429 ± 0.0011 W/m/K | thermal conductivity (473.64 K, 10823 kPa, transient hot wire): 0.04414 ± 0.001 W/m/K | thermal conductivity (473.65 K, 1476 kPa, transient hot wire): 0.02571 ± 0.00085 W/m/K | thermal conductivity (473.66 K, 1476 kPa, transient hot wire): 0.02567 ± 0.00084 W/m/K | thermal conductivity (473.67 K, 429 kPa, transient hot wire): 0.02546 ± 0.0016 W/m/K | thermal conductivity (473.67 K, 15488 kPa, transient hot wire): 0.04746 ± 0.0011 W/m/K | thermal conductivity (473.67 K, 22520 kPa, transient hot wire): 0.05153 ± 0.0013 W/m/K | thermal conductivity (473.68 K, 430 kPa, transient hot wire): 0.02555 ± 0.0016 W/m/K | thermal conductivity (473.71 K, 842 kPa, transient hot wire): 0.02515 ± 0.0015 W/m/K | thermal conductivity (473.71 K, 1912 kPa, transient hot wire): 0.02721 ± 0.0017 W/m/K | thermal conductivity (473.71 K, 1913 kPa, transient hot wire): 0.02727 ± 0.0017 W/m/K | thermal conductivity (473.71 K, 10824 kPa, transient hot wire): 0.04392 ± 0.001 W/m/K | thermal conductivity (473.72 K, 841 kPa, transient hot wire): 0.02507 ± 0.0015 W/m/K | thermal conductivity (473.74 K, 10822 kPa, transient hot wire): 0.04424 ± 0.001 W/m/K | thermal conductivity (473.75 K, 22523 kPa, transient hot wire): 0.05151 ± 0.0013 W/m/K and 0.05152 ± 0.0013 W/m/K | thermal conductivity (473.77 K, 607 kPa, transient hot wire): 0.02516 ± 0.0015 W/m/K and 0.02531 ± 0.0016 W/m/K | thermal conductivity (473.77 K, 15488 kPa, transient hot wire): 0.04755 ± 0.0011 W/m/K | thermal conductivity (473.78 K, 1476 kPa, transient hot wire): 0.02572 ± 0.00085 W/m/K | thermal conductivity (473.78 K, 15486 kPa, transient hot wire): 0.04744 ± 0.0011 W/m/K | thermal conductivity (473.79 K, 1476 kPa, transient hot wire): 0.02574 ± 0.00085 W/m/K | thermal conductivity (473.81 K, 1914 kPa, transient hot wire): 0.02747 ± 0.0017 W/m/K | thermal conductivity (473.81 K, 10823 kPa, transient hot wire): 0.0442 ± 0.001 W/m/K and 0.04427 ± 0.0011 W/m/K | thermal conductivity (473.82 K, 427 kPa, transient hot wire): 0.02562 ± 0.0016 W/m/K | thermal conductivity (473.82 K, 428 kPa, transient hot wire): 0.02569 ± 0.0016 W/m/K | thermal conductivity (473.82 K, 1914 kPa, transient hot wire): 0.0274 ± 0.0017 W/m/K | thermal conductivity (473.85 K, 15487 kPa, transient hot wire): 0.04761 ± 0.0011 W/m/K | thermal conductivity (473.87 K, 15485 kPa, transient hot wire): 0.04754 ± 0.0011 W/m/K | thermal conductivity (473.88 K, 841 kPa, transient hot wire): 0.02504 ± 0.0015 W/m/K | thermal conductivity (473.89 K, 841 kPa, transient hot wire): 0.02504 ± 0.0015 W/m/K
